The record followed here is patent US20070049593A1 (priority 2004, published 2007).

Structures can show the parent of a compound that is named as a salt.

For this assay, the target named is T1, HCV polymerase (Hepatitis C virus genotype 1b, UniProt P26663).
T1 construct: a region encoding NS5B (J Virol 1991 March, 65(3), 1105-13, 544 amino acids after deletion of 47 amino acids on the C-terminal); 6xHis (C); made in house; host or cells: Escherichia coli
Nature of the assay: biochemical. More on the design: species or system HCV BK strain. An outline of the steps:
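His-tagged NS5B (BK strain, 47-aa C-terminal deletion, E. coli-expressed) at 0.5 μg/ml copied 5 μg/ml run-off RNA bearing the HCV 3′ UTR with 2 μM UTP plus [3H]UTP, 50 μM ATP/GTP, in pH 7.5 Tris with 5 mM MgCl2, 25 °C, 90 min. TCA-precipitated RNA was counted and IC50 calculated.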

T1 sequence (P26663 2420-2963): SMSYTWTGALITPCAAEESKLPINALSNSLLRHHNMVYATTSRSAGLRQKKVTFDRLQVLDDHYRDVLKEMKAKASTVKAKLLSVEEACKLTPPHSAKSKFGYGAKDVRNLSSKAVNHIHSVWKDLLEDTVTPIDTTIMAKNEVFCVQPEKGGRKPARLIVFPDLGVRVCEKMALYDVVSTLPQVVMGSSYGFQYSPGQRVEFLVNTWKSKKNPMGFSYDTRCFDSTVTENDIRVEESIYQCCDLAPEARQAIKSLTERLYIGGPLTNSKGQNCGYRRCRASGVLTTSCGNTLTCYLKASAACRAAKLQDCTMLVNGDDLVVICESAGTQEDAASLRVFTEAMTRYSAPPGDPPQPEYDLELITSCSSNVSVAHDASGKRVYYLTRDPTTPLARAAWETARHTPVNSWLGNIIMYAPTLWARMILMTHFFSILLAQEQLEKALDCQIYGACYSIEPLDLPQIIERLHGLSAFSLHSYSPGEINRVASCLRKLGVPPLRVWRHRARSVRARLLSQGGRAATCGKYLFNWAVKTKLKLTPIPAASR

In turn, `Cc1nc(C(C)(C)NC(=O)c2ccc3c(C4CCCCC4)c4n(c3c2)CCOc2ccccc2-4)n(CC(=O)O)c1C` [Example 2-265, (2-{1-[(12-cyclohexyl-6,7-dihydro-5-oxa-7a-azadibenzo[a,e]azulene-9-carbonyl)amino]-1-methylethyl}-4,5-dimethylimidazol-1-yl)acetic acid] yielded a half-inhibitory concentration (IC50) of 0.1 to 1 µM.

`COC(=O)c1ccc2nc(NC(=O)c3ccc4c(C5CCCCC5)c5n(c4c3)CCOc3ccccc3-5)[nH]c2c1` [Example 2-266, methyl 2-[(12-cyclohexyl-6,7-dihydro-5-oxa-7a-azadibenzo[a,e]azulene-9-carbonyl)amino]-3H-benzimidazole-5-carboxylate]: the half-maximal inhibitory concentration (IC50) lay within 0.1 to 1 µM.

The compound `O=C(Nc1nc2ccccc2[nH]1)c1ccc2c(C3CCCCC3)c3n(c2c1)CCOc1ccccc1-3` [Example 2-267, N-(1H-benzimidazol-2-yl)-12-cyclohexyl-6,7-dihydro-5-oxa-7a-azadibenzo[a,e]azulene-9-carboxamide] returned a half-inhibitory concentration (IC50) of 0.1 to 1 µM.

Regarding `O=C(O)c1ccc2nc(NC(=O)c3ccc4c(C5CCCCC5)c5n(c4c3)CCOc3ccccc3-5)[nH]c2c1` [Example 2-268, 2-[(12-cyclohexyl-6,7-dihydro-5-oxa-7a-azadibenzo[a,e]azulene-9-carbonyl)amino]-3H-benzimidazole-5-carboxylic acid], the IC50 lay in the range of 0.1 to 1 µM.

In the case of `CC(C)(NC(=O)c1ccc2c(C3CCCCC3)c3n(c2c1)CCOc1ccccc1-3)c1nc2ccc(C#N)cc2[nH]1` [Example 2-269, N-[1-(6-cyano-1H-benzimidazol-2-yl)-1-methylethyl]-12-cyclohexyl-6,7-dihydro-5-oxa-7a-azadibenzo[a,e]azulene-9-carboxamide], the concentration for half-maximal inhibition (IC50) is below 0.1 µM.

In the case of `COC(=O)[C@@H](NC(=O)c1ccc2c(C3CCCCC3)c3n(c2c1)CCOc1cc(OC)ccc1-3)c1ccc(O)cc1` [Example 2-270, methyl (S)-2-[(12-cyclohexyl-3-methoxy-6,7-dihydro-5-oxa-7a-azadibenzo[a,e]azulene-9-carbonyl)amino]-2-(4-hydroxyphenyl)acetate], the IC50 is below 0.1 µM.

Compound `COC(=O)[C@H](NC(=O)c1ccc2c(C3CCCCC3)c3n(c2c1)CCOc1cc(OC)ccc1-3)c1ccc(O)cc1` [Example 2-271, methyl (R)-2-[(12-cyclohexyl-3-methoxy-6,7-dihydro-5-oxa-7a-azadibenzo[a,e]azulene-9-carbonyl)amino]-2-(4-hydroxyphenyl)acetate] displayed an IC50 below 0.1 µM.

As for `CCN(CCN1CCC(OC)CC1)c1cccc2c1OCCn1c-2c(C2CCCCC2)c2ccc(C(=O)O)cc21` [Example 2-272, 12-cyclohexyl-4-{N-ethyl-N-[2-(4-methoxypiperidin-1-yl)ethyl]amino}-6,7-dihydro-5-oxa-7a-azadibenzo[a,e]azulene-9-carboxylic acid dihydrochloride], the IC50 was below 0.1 µM.

`O=C(O)c1ccc2c(C3CCCCC3)c3n(c2c1)CCOc1c(-c2ccccc2)cccc1-3` [Example 2-273, 12-cyclohexyl-4-phenyl-6,7-dihydro-5-oxa-7a-azadibenzo[a,e]azulene-9-carboxylic acid] registered an IC50 below 0.1 µM.

The compound `CCN(CCN1CCCC(COC)C1)c1cccc2c1OCCn1c-2c(C2CCCCC2)c2ccc(C(=O)O)cc21` (stereo not drawn) [Example 2-274, 12-cyclohexyl-4-{N-ethyl-N-[2-(3-methoxymethylpiperidin-1-yl)ethyl]amino}-6,7-dihydro-5-oxa-7a-azadibenzo[a,e]azulene-9-carboxylic acid dihydrochloride] displayed a 50% inhibitory concentration (IC50) below 0.1 µM.

Take `CCN(CCN1CCC(COC)CC1)c1cccc2c1OCCn1c-2c(C2CCCCC2)c2ccc(C(=O)O)cc21` [Example 2-275, 12-cyclohexyl-4-{N-ethyl-N-[2-(4-methoxymethylpiperidin-1-yl)ethyl]amino}-6,7-dihydro-5-oxa-7a-azadibenzo[a,e]azulene-9-carboxylic acid dihydrochloride]: the concentration for half-maximal inhibition (IC50) is below 0.1 µM.

`CCCN(CCN1CCCCC1)c1cccc2c1OCCn1c-2c(C2CCCCC2)c2ccc(C(=O)NC(C)(C)C(=O)O)cc21` [Example 2-276, 2-[(12-cyclohexyl-4-{N-[2-(piperidin-1-yl)ethyl]-N-propylamino}-6,7-dihydro-5-oxa-7a-azadibenzo[a,e]azulene-9-carbonyl)amino]-2-methylpropionic acid]: the IC50 was below 0.1 µM.

On to `O=C(O)c1ccc2c(C3CCCCC3)c3n(c2c1)CCOc1c-3cccc1N(CC(=O)N1CCCCC1)CC(=O)N1CCCCC1` [Example 2-277, 4-{bis[2-oxo-2-(piperidin-1-yl)ethyl]amino}-12-cyclohexyl-6,7-dihydro-5-oxa-7a-azadibenzo[a,e]azulene-9-carboxylic acid], for which the concentration for half-maximal inhibition (IC50) was below 0.1 µM.

In the case of `O=C(O)c1ccc2c(C3CCCCC3)c3n(c2c1)CCOc1c-3cccc1N(CCN1CCCCC1)CCN1CCCCC1` [Example 2-278, 4-{bis[2-(piperidin-1-yl)ethyl]amino}-12-cyclohexyl-6,7-dihydro-5-oxa-7a-azadibenzo[a,e]azulene-9-carboxylic acid dihydrochloride], the IC50 is below 0.1 µM.

In turn, `COC(=O)[C@H](Cc1ccc(F)cc1)NC(=O)c1ccc2c(C3CCCCC3)c3n(c2c1)CCOc1cc(OC)ccc1-3` [Example 2-279, methyl (S)-2-[(12-cyclohexyl-3-methoxy-6,7-dihydro-5-oxa-7a-azadibenzo[a,e]azulene-9-carbonyl)amino]-3-(4-fluorophenyl)propionate] showed an IC50 below 0.1 µM.

For `COC(=O)[C@H](Cc1c[nH]cn1)NC(=O)c1ccc2c(C3CCCCC3)c3n(c2c1)CCOc1cc(OC)ccc1-3` [Example 2-280, methyl (S)-2-[(12-cyclohexyl-3-methoxy-6,7-dihydro-5-oxa-7a-azadibenzo[a,e]azulene-9-carbonyl)amino]-3-(1H-imidazol-4-yl)propionate], the half-inhibitory concentration (IC50) is below 0.1 µM.

`COC(=O)[C@@H]1Cc2ccc(O)cc2CN1C(=O)c1ccc2c(C3CCCCC3)c3n(c2c1)CCOc1cc(OC)ccc1-3` [Example 2-281, methyl (S)-2-(12-cyclohexyl-3-methoxy-6,7-dihydro-5-oxa-7a-azadibenzo[a,e]azulene-9-carbonyl)-7-hydroxy-1,2,3,4-tetrahydroisoquinoline-3-carboxylate]: the half-inhibitory concentration (IC50) lay within 0.1 to 1 µM.

In turn, `COC(=O)c1cc2[nH]c(C(C)(C)NC(=O)c3ccc4c(C5CCCCC5)c5n(c4c3)CCOc3ccccc3-5)nc2cc1C` [Example 2-282, methyl 2-{1-[(12-cyclohexyl-6,7-dihydro-5-oxa-7a-azadibenzo[a,e]azulene-9-carbonyl)amino]-1-methylethyl}-6-methyl-3H-benzimidazole-5-carboxylate] registered a 50% inhibitory concentration (IC50) below 0.1 µM.

As for `Cc1cc2nc(C(C)(C)NC(=O)c3ccc4c(C5CCCCC5)c5n(c4c3)CCOc3ccccc3-5)[nH]c2cc1C(=O)O` [Example 2-283], the 50% inhibitory concentration (IC50) is below 0.1 µM.

`COC(=O)Cn1c(C(C)(C)NC(=O)c2ccc3c(C4CCCCC4)c4n(c3c2)CCOc2ccccc2-4)nc2ccccc21` [Example 2-284, methyl (2-{1-[(12-cyclohexyl-6,7-dihydro-5-oxa-7a-azadibenzo[a,e]azulene-9-carbonyl)amino]-1-methylethyl}benzimidazol-1-yl)acetate] yielded an IC50 below 0.1 µM.

Compound `Cn1c(C(C)(C)NC(=O)c2ccc3c(C4CCCCC4)c4n(c3c2)CCOc2ccccc2-4)nc2ccccc21` [Example 2-285, N-[1-methyl-1-(1-methyl-1H-benzimidazol-2-yl)ethyl]-12-cyclohexyl-6,7-dihydro-5-oxa-7a-azadibenzo[a,e]azulene-9-carboxamide] showed an IC50 below 0.1 µM.

In turn, `Cn1c(NC(=O)c2ccc3c(C4CCCCC4)c4n(c3c2)CCOc2ccccc2-4)nc2ccccc21` [Example 2-286, N-(1-methyl-1H-benzimidazol-2-yl)-12-cyclohexyl-6,7-dihydro-5-oxa-7a-azadibenzo[a,e]azulene-9-carboxamide] displayed a 50% inhibitory concentration (IC50) of 0.1 to 1 µM.

The compound `O=C(O)CN1CCC(CO)(NC(=O)c2ccc3c(C4CCCCC4)c4n(c3c2)CCOc2ccccc2-4)CC1` [Example 2-287, {4-[(12-cyclohexyl-6,7-dihydro-5-oxa-7a-azadibenzo[a,e]azulene-9-carbonyl)amino]-4-hydroxymethylpiperidin-1-yl}acetic acid monohydrochloride] registered a half-inhibitory concentration (IC50) of 0.1 to 1 µM.

Compound `O=C(NCc1nc2ccccc2n1CCO)c1ccc2c(C3CCCCC3)c3n(c2c1)CCOc1ccccc1-3` [Example 2-288, N-[1-(2-hydroxyethyl)-1H-benzimidazol-2-ylmethyl]-12-cyclohexyl-6,7-dihydro-5-oxa-7a-azadibenzo[a,e]azulene-9-carboxamide] registered a 50% inhibitory concentration (IC50) below 0.1 µM.

In turn, `CC(C)(NC(=O)c1ccc2c(C3CCCCC3)c3n(c2c1)CCOc1ccccc1-3)C(=O)N1CCOCC1` [Example 2-289, N-[1,1-dimethyl-2-(morpholin-4-yl)-2-oxoethyl]-12-cyclohexyl-6,7-dihydro-5-oxa-7a-azadibenzo[a,e]azulene-9-carboxamide] yielded a 50% inhibitory concentration (IC50) below 0.1 µM.

Regarding `CN1CCN(C(=O)C(C)(C)NC(=O)c2ccc3c(C4CCCCC4)c4n(c3c2)CCOc2ccccc2-4)CC1` [Example 2-290, N-[1,1-dimethyl-2-(4-methylpiperazin-1-yl)-2-oxoethyl]-12-cyclohexyl-6,7-dihydro-5-oxa-7a-azadibenzo[a,e]azulene-9-carboxamide], the concentration for half-maximal inhibition (IC50) lay within 0.1 to 1 µM.

On to `CC(C)(NC(=O)c1ccc2c(C3CCCCC3)c3n(c2c1)CCOc1ccccc1-3)C(=O)N1CCN(c2ccccc2)CC1` [Example 2-291, N-[1,1-dimethyl-2-oxo-2-(4-phenylpiperazin-1-yl)ethyl]-12-cyclohexyl-6,7-dihydro-5-oxa-7a-azadibenzo[a,e]azulene-9-carboxamide], for which the IC50 is below 0.1 µM.

As usually defined, the IC50 is the concentration needed to halve the response being measured.
